US12545653B2, “Compound as PPAR agonist and application thereof” (USA Elixiria Biotech Inc., priority 2019, dated 2026)

Legend:
HEK 293T cells = experiment: Inhibition of reactive oxygen species production (ROS-Glo H2O2 Assay); type: cell-based, human; details: 18 hours incubation; for EC50: Homo sapiens, HEK-293T, 18 h; for inhibition of active oxygen production (up to), compared to the DMSO control: 0-30 micromole/L
Procedure: Mitochondrial reactive oxygen species-induced oxidative stress is the source of many diseases. This experiment is used to test whether the carbonyl-containing cyclic compounds provided by the present invention can reduce the production of reactive oxygen species. HEK 293T cells were divided into 96-well plates at 5000 cells per well, cultured in a 37° C. carbon dioxide incubator with serum-free Duchenne's Modified Eagle's Medium (DMEM) for 6 hours, and then representatives for compounds listed in Table 2 and 3 were added to a final concentration of 0, 0.1, 0.3, 1, 3, 10, 30 micromole/L, with each concentration in triplicate. After 18 hours of incubation, the reactive oxygen species detection kit (ROS-Glo™ H2O2 Assay) and the GloMax microplate fluorescence detector (Promega, USA) were used to detect reactive oxygen species production. At the same time, pioglitazone was used as a control. The amount of fluorescence is positively related to the production of reactive oxygen species. A three-parameter Sigmoid function curve was used to fit the obtained data. The abscissa represents the logarithmic value of the concentration, and the ordinate represents the percentage of reduced reactive oxygen species production relative to those of the control. Then EC50 value was calculated with professional software.

[1] = test system: MPTP-HCl Parkinson's disease model mice; experiment: Parkinson's disease model (MPTP-HCl), beam traversal test; details: MPTP-HCl/probenecid mice, 5 mg/kg body weight intraperitoneal daily, 35 days
Procedure: Three month-old male wild type mice were used in the experiment. The treatment lasted for a total of 35 days. […] For all abovementioned groups, Motor skills were assessed on the 36th to 40th days after compound administration. Beam traversal test is a method commonly used in academia to detect movement coordination in animals with Parkinson's disease. […] The mice were first trained for 2 consecutive days, and taught to trained to traverse the length of the beam. On the day of the test, a mesh grid (1 cm squares) of corresponding width was placed over the beam surface leaving a ˜1 cm space between the grid and the beam surface. Animals were then videotaped while traversing the grid-surfaced beam for a total of five trials. An error was counted when, during a forward movement, a forelimb or hindlimb slipped through the grid. The number of errors made per step (referred to as “error per step scores”) was counted. An analysis of variance (ANOVA) and Dunnett post hoc comparison test are used to compare the significance of the differences between different groups of data. The difference is significant with P<0.05.

db−/db− mice = experiment: Diabetic peripheral neuropathy model, Von Frey threshold, sciatic nerve ROS and MDA; type: in vivo, mouse; details: in food 10 mg/kg body weight/day (pregabalin 30 mg/kg body weight/day)
Procedure: Male 5-6 week-old male db^−/db^− mice were used in the experiment, and their normoglycemic heterozygous littermates were used as controls. db^−/db^− is a commonly used type 2 diabetes animal model. The compounds was dissolved in DMSO and mixed into food pellets. The animals were given ad libitum access to the pellets, beginning from 8 to 9 weeks of age for 10 weeks. […] The method for detecting mice hindlimb hypersensitivity is performed using Von Frey filaments. […] The difference is significant with P<0.05. The increase of mitochondrial reactive oxygen species (ROS) in the sciatic nerve of mice, which in turn leads to the increase of intracellular malondialdehyde (MDA), is the etiology of this type of neuropathic pain. The efficacy of compound to treat the root cause of the disease was evaluated by measurement of the levels of MDA and mitochondrial ROS from the sciatic nerves.

APP/PS1 transgenic mice = experiment: Alzheimer's disease model, eight-arm radial water maze and brain gene expression; type: in vivo, mouse; details: 30 days in food, 10 mg/kg body weight/day (donepezil 3 mg/kg body weight/day), 5 on the first day
Text: A common indicator used in academia in memory and dementia experiments is the number of errors in the water maze (reference memory). More errors mean poorer memory. On the last 3 days of dosing, eight-arm radial water maze was used by experimenters who were blind to drug treatment. As a classic experimental instrument, to detect slight deficits in learning and memory, the eight-arm water maze is more sensitive than not only Morris maze, but also Six-arm radial water maze. For details, see reference 8: Alamed J et al. Two-day radial-arm water maze learning and memory task; robust resolution of amyloid-related memory deficits in transgenic mice [J]. […] This experiment uses an eight-arm water maze built in accordance with the above literature. The eight-arm water maze is placed in a basin with an interior diameter of 102 cm. Each arm measures 30 cm long, 14.5 cm wide, and 40 cm high. Escape platform is located at the end of one of the arms. In the reference memory version of the task described here, the goal arm is held constant for all trials, with a different start arm on successive trials. On day one, mice received 12 trials, with trials alternating between visible and hidden platform. On day 2 and 3, mice received 12 additional trials but the platform was kept hidden throughout the trials. Entry into an incorrect arm was scored as a spatial reference error. Errors were averaged into three trial blocks, with four blocks per day, e.g., the first block (the 1st to 3rd trial), the second block (the 4th to 6th trial), and so on. […]. The line charts were made with the number of blocks as the abscissa and the average of the number of errors as the ordinate. At the end of the experiments, the cerebral cortex and hippocampus of the mice were removed, RNA was extracted, and the expression of many genes was analyzed by semi-quantitative RT-PCR. […] The difference is significant with P<0.05.

PPARγ = target: T1, PPARγ (Homo sapiens, UniProt P37231); experiment: In vitro transcriptional activity of PPARγ gene (PPRE-luciferase reporter, HEK 293 T cells); type: cell-based; details: HEK 293 T cells transfected with PPARγ expression and PPRE-luc plasmids, 21 hours; read-out: EC50 of PPARγ gene activation
T1 construct: expressed in transfected cells; host or cells: HEK 293 T cells
T1 sequence (P37231 1-505): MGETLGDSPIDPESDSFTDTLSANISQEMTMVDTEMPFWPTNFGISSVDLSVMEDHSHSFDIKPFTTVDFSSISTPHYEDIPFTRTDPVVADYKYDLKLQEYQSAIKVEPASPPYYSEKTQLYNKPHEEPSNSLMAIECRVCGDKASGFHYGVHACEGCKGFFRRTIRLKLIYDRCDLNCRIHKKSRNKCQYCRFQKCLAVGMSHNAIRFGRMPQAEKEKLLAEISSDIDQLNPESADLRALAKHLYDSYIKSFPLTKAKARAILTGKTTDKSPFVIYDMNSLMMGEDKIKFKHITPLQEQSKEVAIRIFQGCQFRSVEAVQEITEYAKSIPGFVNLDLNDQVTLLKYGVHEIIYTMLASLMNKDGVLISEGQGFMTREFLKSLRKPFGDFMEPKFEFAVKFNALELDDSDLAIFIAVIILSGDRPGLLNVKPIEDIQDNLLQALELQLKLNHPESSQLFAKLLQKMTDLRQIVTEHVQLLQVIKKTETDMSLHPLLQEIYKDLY
Text: In this experiment, the PPARγ gene was used as target gene to detect the in vitro transcription activity of the compounds. The compounds of interest were detected was first dissolved with dimethyl sulfoxide (DMSO). […] First two plasmids were constructed: PPARγ protein expression plasmid and luciferase reporter plasmid. They are both from the lentiviral plasmid pLV-CMVIE-ZsGreen-Puro, whose DNA sequence contains the cytomegalovirus immediate early (CMVie) promoter, ZsGreen and Puro dual reporter. The PPARγ expression plasmid pLV-CMVIE-PPAR[…]-ZsGreen-Puro was constructed by cloning full-length coding sequences of the pertinent receptors into pHBLV-CMVIE-ZsGreen-Puro vector. To construct the luciferase (luc) reporter plasmid pLV-PPRE-luc-ZsGreen-Puro, the CMVie promoter in plasmid pHBLV-CMVIE-ZsGreenPuro was first replaced by a peroxisome proliferator responsive element (PPRE) containing fragments comprised the nucleotide sequence 50-[…], repeated four times in tandem, to generate a new plasmid, at a multiple cloning site of which the luc gene was then inserted. […] The compounds used for screening are representatives for compounds listed in Table 2, and Tables 3 of the present invention. […] Cells were distributed in 10-cm tissue culture plates at a density of 5.5 million cells per plate, and then transfected with the luciferase reporter plasmid (6 nanogram/plate) and the PPARγ expression plasmid (18 nanogram/plate). Cells were cultured for 6 hours. […] Then the cells were distributed in 96-well plates at a density of 20,000 cells per well. After incubation for 6 h, compounds or control with different concentration were placed into each well, resulting in the finical concentration of […] with each concentration in triplicate. Twenty-one hours later, promoter activation was detected by the addition of SteadyLite (PerkinElmer, Waltham, MA) and GloMax 96 Microplate Luminometer (Promega, Madison, WI). The amount of Luminometer emitted from each well is positively correlated with the expression of PPARγ gene. A three-parameter Sigmoid function curve was used to fit the obtained data. The abscissa represents the logarithmic value of the concentration, and the ordinate represents the percentage of PPARγ gene activation relative to those of the control. […] In Statistical analysis, the coefficient of variation is used to measure the robustness and repeatability of the experiment. […] The difference is significant with P<0.05. EC50 is a parameter of its activity.

klotho gene promoter = experiment: In vitro transcriptional activity of klotho gene (KL-Luc-3 luciferase cell line); type: cell-based; details: 16 h, KL-Luc-3 cells, 16 hours incubation
Text: The activities of these carbonyl-containing cyclic compounds are indicated by the increased expression of klotho gene. […] The present invention retains the DNA fragment of the klotho gene promoter, but replaces the DNA sequence of the coding region of the klotho gene with those of luciferase, so that the degree of activation of the klotho gene promoter and the expression of the klotho gene will be sensitively determined by detecting the luciferase luminescence signal.
Klotho is an important downstream gene of PPARγ pathway. The following experiments tested the properties of the compounds in Table 2 and 3 to activate the klotho gene in vitro. First, a stable cell line, KL-Luc, was constructed. The klotho gene carried by the cell line retained the DNA sequence of klotho gene promoter, but the coding sequence of the klotho gene was replaced with luciferase. KL-Luc fragment includes a promoter sequence of the klotho gene (a DNA region of 18,000 base pairs in length upstream of the transcription start site of the gene) and a luciferase-encoding sequence. To construct the KL-Luc sequence containing lentiviral vector, the KL-Luc fragment was cloned into the pDONR vector using BP recombinase, so that the target fragment had attL recombination sites on both sides. Then the KL-Luc fragment was transferred from the pDONR vector to a lentiviral vector (without exogenous promoter) pLenti6/BLOCK-IT-DEST. The constructed lentiviral vector of the target fragment was then transfected into HEK293T cells, and then the KL-Luc gene lentiviral expression vector and the […] were co-transfected into HEK293T cells to perform lentiviral packaging. The virus was harvested, and virus titer was calculated. And the lentivirus was used to infect target cells. The stable strains were screened by adding drugs. Finally, monoclonal cell lines were selected from polyclonal cells by cell cloning. The effective luciferase expression of each monoclonal cell line was determined by quantitative polymerase chain reaction (qPCR). The inventors chose a third monoclonal cell line (KL-Luc-3) to continue the compound screening. The compounds of interest were the compounds in Table 2 and 3. At the same time, rosiglitazone and pioglitazone were used as a control. KL-Luc-3 cells were divided into 96-well plates at 5000 cells in 80 microL per well, cultured in a 37° C. carbon dioxide incubator with serum-free Duchenne's Modified Eagle's Medium (DMEM) for 6 hours, and then the compounds were added to a final concentration of 0, 0.1, 0.3, 1, 3, 10, 30 micromole/L, with each concentration in triplicate. After 16 hours of incubation, the SteadyLite (PerkinElmer, Waltham, MA) and the GloMax Microplate Luminometer (Promega, USA) were used for quantitation of luciferase activity. The amount of luminescence emitted from each well is positively related to the transcriptional activity of the klotho promoter. A three-parameter Sigmoid function curve was used to fit the obtained data. The abscissa represents the logarithmic value of the concentration, and the ordinate represents the percentage of the activity relative to those of the control. […] In Statistical analysis, the coefficient of variation is used to measure the robustness and repeatability of the experiment. […] The difference is significant with P<0.05. EC50 is a parameter of its activity. The lower the EC50 value, the higher the activity of corresponding compound.

[2] = Blood-brain barrier permeability: brain concentration after a single injection; type: in vivo, rat; details: for AUC(0-t): male, rat, in vivo, ip, 10 mg/kg
Procedure: The blood-brain barrier permeability of carbonyl-containing cyclic compounds is determined in in vivo studies. Healthy male rats used in the study were divided into compound group and control group. […] The brains were dissected, heated immediately at boiling water for 2 min, homogenized with methanol, and centrifuged. The upper layer was collected and dried under vacuum to remove solvents, and then resuspended in methanol. The above samples are filtered through a 0.45 micron nylon membrane, and then 20 microL of sample were load into a high-performance liquid chromatographic (HPLC) system (Model LC-16P, Shimadzu, Japan) to perform quantitative analysis.

[3] = test system: dIoN-CCI rat model of trigeminal neuropathic pain; experiment: Trigeminal neuralgia model (dIoN-CCI), Von Frey mechanical threshold; details: dIoN-CCI rats
[4] = compared with healthy control group

Row | Compound | EC50 (HEK 293T cells) [µM] | number of errors per step in beam traversal test compared with disease control group [1] | level of MDA in the sciatic nerve after 10 week treatment (db−/db− mice; [4]) | level of mitochondrial ROS in the sciatic nerve after 10 week treatment (db−/db− mice; [4]) | mechanical pain threshold after 10 week treatment (db−/db− mice; compared with normal control group) | number of errors in water maze on the third day (APP/PS1 transgenic mice) | EC50 (PPARγ) [µM] | EC50 (klotho gene promoter) [µM] | inhibition of active oxygen production (up to), compared to the DMSO control (HEK 293T cells) | AUC(0-t) ([2]; AUC0-6 h) [ng·h/mL] | AUC(0-t) ([2]; AUC0-24 h) [ng·h/mL] | time to maximum brain concentration (Tmax) ([2]; rat brain, 10 mg/kg intraperitoneal, single injection) [h] | minimum effective anti-allodynic dose ([3]; oral) [mg/kg] | mechanical threshold 2 hours after oral administration ([3]; oral 300 mg/kg body weight, Von Frey) [g]
1 | CCc1ccc(CCCCc2ccc3c(c2)C(=O)CC3)cc1 [ELB00825, 6-(4-(4-ethylphenyl)butyl)-2,3-dihydro-1H-inden-1-one] | < 10 | significantly lower | reduced | reduced | significantly improved | comparable to that of ELB00824 | – | – | – | – | – | – | – | –
2 | CCc1cccc(CC/C=C/c2ccc3c(c2)C(=O)CC3)c1 [ELB001203, 6-((1E)-4-(3-ethylphenyl)but-1-en-1-yl)-2,3-dihydro-1H-inden-1-one] | < 3 | – | – | – | – | – | < 6.4 | < 9.7 | – | – | – | – | – | –
3 | CCc1ccc(CCOc2ccc(CC3SC(=O)NC3=O)cc2)nc1 (stereo not drawn) [pioglitazone, reference compound] | 0.7 | – | – | – | – | – | – | – | up to 42% | 1510 | 3520 | 1 | 300 | 4.9 ± 0.9
4 | CN(CCOc1ccc(CC2SC(=O)NC2=O)cc1)c1ccccn1 (stereo not drawn) [rosiglitazone, reference compound] | 2.5 | – | – | – | – | – | – | 9.7 | up to 58% | 774 | 1930 | – | – | –
